Molecules are shown by their SMILES.

Chain of JAK1 (P23458 whole entry): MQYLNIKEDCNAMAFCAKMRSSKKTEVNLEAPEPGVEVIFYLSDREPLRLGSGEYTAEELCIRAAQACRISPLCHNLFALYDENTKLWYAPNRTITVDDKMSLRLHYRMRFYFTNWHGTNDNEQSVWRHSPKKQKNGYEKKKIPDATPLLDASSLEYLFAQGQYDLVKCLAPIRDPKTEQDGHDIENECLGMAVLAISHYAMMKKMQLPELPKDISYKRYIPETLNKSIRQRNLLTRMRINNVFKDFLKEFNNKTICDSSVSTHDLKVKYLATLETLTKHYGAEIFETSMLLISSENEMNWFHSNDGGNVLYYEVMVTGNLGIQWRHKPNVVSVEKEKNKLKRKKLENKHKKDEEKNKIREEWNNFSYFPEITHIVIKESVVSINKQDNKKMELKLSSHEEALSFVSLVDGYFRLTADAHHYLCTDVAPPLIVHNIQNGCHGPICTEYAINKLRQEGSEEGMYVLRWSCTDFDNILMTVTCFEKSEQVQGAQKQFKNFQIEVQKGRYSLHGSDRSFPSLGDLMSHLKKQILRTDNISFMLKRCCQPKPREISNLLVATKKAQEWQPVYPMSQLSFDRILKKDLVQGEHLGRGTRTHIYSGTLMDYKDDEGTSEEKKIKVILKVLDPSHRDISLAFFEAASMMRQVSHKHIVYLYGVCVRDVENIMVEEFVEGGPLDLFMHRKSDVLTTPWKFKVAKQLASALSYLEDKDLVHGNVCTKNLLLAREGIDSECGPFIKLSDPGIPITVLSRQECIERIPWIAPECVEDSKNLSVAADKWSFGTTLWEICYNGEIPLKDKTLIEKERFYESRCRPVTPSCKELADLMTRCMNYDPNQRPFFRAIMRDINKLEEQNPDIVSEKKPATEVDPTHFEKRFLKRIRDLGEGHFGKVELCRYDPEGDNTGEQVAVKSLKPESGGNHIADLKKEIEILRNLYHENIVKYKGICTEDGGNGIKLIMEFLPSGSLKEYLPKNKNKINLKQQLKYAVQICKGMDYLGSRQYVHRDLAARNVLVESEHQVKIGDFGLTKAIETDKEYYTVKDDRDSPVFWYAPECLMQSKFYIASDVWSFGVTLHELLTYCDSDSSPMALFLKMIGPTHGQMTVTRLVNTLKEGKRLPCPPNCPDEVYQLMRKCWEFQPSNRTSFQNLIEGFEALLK

The assay addresses JAK1 (Homo sapiens (Human), UniProt P23458). The experiment in a line: Analysis of JAK1 activity inhibition ability (ADP-Glo Kinase Assay). The class given is biochemical. Particulars: JAK1 enzyme, ADP-Glo luminescence, ATP 250 uM, IRS-itide substrate, 30° C. 40 minutes; read-out: IC50. The method in brief: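 ADP-Glo luminescence read-out of ADP production, with IC50 taken as the concentration halving JAK1 activity relative to control. Enzyme was incubated 40 min at 30 °C with compound, IRS-itide (40 ng/mL) and ATP (250 uM), concentrations as prepared in pH 7.5 Tris-HCl/MgCl2/BSA/DTT buffer.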
In general terms: ADP-Glo first removes unused ATP, then detects ADP through luciferase.
Consider `CCS(=O)(=O)Nc1ccc(-c2cc(NS(=O)(=O)C3CC3)nc3[nH]ccc23)cc1F` [Example 716, N-(4-(4-(ethylsulfonamido)-3-fluorophenyl)-1H-pyrrolo[2,3-b]pyridin-6-yl)cyclopropanesulfonamide], for which the IC50 – broadly, the concentration that gives 50% inhibition – was greater than 200 nM.

Take `CCNC(=O)Nc1ccc(-c2cc(NC(=O)C3CC3)nc3[nH]ccc23)cc1` [Example 431, N-(4-(4-(3-ethylureido)phenyl)-1H-pyrrolo[2,3-b]pyridin-6-yl)cyclopropanecarboxamide]: the IC50 was in the range of 20 to 200 nM.

As for `CC1CN(C(=O)c2ccc(O)cc2)CC=C1c1cc(NC(=O)C2CC2)nc2[nH]ccc12` (centres unmarked) [Example 350, N-(4-(1-(4-hydroxybenzoyl)-3-methyl-1,2,3,6-tetrahydropyridin-4-yl)-1H-pyrrolo[2,3-b]pyridin-6-yl)cyclopropanecarboxamide], the IC50 was in the range of 20 to 200 nM.

With `O=C(Nc1cc(-c2ccc(NCc3ccccc3)cc2)c2cc[nH]c2n1)C1CC1` [Example 472, N-(4-(4-(benzylamino)phenyl)-1H-pyrrolo[2,3-b]pyridin-6-yl)cyclopropanecarboxamide], the IC50 is greater than 200 nM.

Regarding `N#CCCC(=O)N1C[C@H]2C[C@@H]1CN2c1cc(NC(=O)C2CC2)nc2[nH]ccc12` [Example 682, N-(4-((1R,4R)-5-(3-cyanopropanoyl)-2,5-diazabicyclo[2.2.1]heptan-2-yl)-1H-pyrrolo[2,3-b]pyridin-6-yl)cyclopropanecarboxamide], the IC50 was greater than 200 nM.

Take `CC(C)(C)CS(=O)(=O)Nc1ccc(-c2cc(NC(=O)C3CC3)nc3[nH]ccc23)cc1` [Example 44, N-(4-(4-((2,2-dimethylpropyl)sulfonamido)phenyl)-1H-pyrrolo[2,3-b]pyridin-6-yl)cyclopropanecarboxamide]: the IC50 was less than 20 nM.

`CC(C)(C)OC(=O)N1CCCC(NC(=O)Cc2ccc(-c3cc(NC(=O)C4CC4)nc4[nH]ccc34)cc2)C1` (centres unmarked) [Example 555, tert-butyl 3-(2-(4-(6-(cyclopropanecarboxamido)-1H-pyrrolo[2,3-b]pyridin-4-yl)phenyl)acetamido)piperidine-1-carboxylate]: the IC50 was greater than 200 nM.

With `O=C(Nc1cc(-c2ccc(NS(=O)(=O)N3CCCC3)c(F)c2)c2cc[nH]c2n1)C1CC1` [Example 225, N-(4-(3-fluoro-4-(pyrrolidine-1-sulfonamido)phenyl)-1H-pyrrolo[2,3-b]pyridin-6-yl)cyclopropanecarboxamide], the IC50 is less than 20 nM.

For the molecule `O=C(Cc1ccc(-c2cc(NC(=O)C3CC3)nc3[nH]ccc23)cc1)NC1CCS(=O)(=O)C1` (centres unmarked) [Example 538, N-(4-(4-(2-((1,1-dioxidotetrahydrothiophen-3-yl)amino)-2-oxoethyl)phenyl)-1H-pyrrolo[2,3-b]pyridin-6-yl)cyclopropanecarboxamide], the IC50 was 20 to 200 nM.

On to `CCCCS(=O)(=O)Nc1ccc(-c2nc(NC(=O)C3CC3)nc3[nH]ccc23)cc1` [Example 191, N-(4-(4-(butylsulfonamido)phenyl)-7H-pyrrolo[2,3-d]pyrimidin-2-yl)cyclopropanecarboxamide], for which the IC50 is less than 20 nM.

With `Cc1nn(CCC#N)c(C)c1-c1cc(NC(=O)C2CC2)nc2[nH]ccc12` [Example 480, N-(4-(1-(2-cyanoethyl)-3,5-dimethyl-1H-pyrazol-4-yl)-1H-pyrrolo[2,3-b]pyridin-6-yl)cyclopropanecarboxamide], the IC50 lay within 20 to 200 nM.

`Cc1c(NC(=O)C2CC2)nc2[nH]ccc2c1C1=CCN(C(=O)CC(F)(F)F)CC1` [Example 290, N-(5-methyl-4-(1-(3,3,3-trifluoropropanoyl)-1,2,3,6-tetrahydropyridin-4-yl)-1H-pyrrolo[2,3-b]pyridin-6-yl)cyclopropanecarboxamide]: the IC50 was greater than 200 nM.

On to `CC1CN(C(=O)c2ccnc(C#N)c2)CC=C1c1cc(NC(=O)C2CC2)nc2[nH]ccc12` (centres unmarked) [Example 392, N-(4-(1-(2-cyanoisonicotinoyl)-3-methyl-1,2,3,6-tetrahydropyridin-4-yl)-1H-pyrrolo[2,3-b]pyridin-6-yl)cyclopropanecarboxamide], for which the IC50 lay within 20 to 200 nM.

With `O=C(Nc1cc(C2=CC3CCC(C2)N3C(=O)NCC(F)(F)F)c2cc[nH]c2n1)C1CC1` (centres unmarked) [Example 448, 3-(6-(cyclopropanecarboxamido)-1H-pyrrolo[2,3-b]pyridin-4-yl)-N-(2,2,2-trifluoroethyl)-8-azabicyclo[3.2.1]oct-2-ene-8-carboxamide], the IC50 was less than 20 nM.

In the case of `CCCCC(=O)N1C2CCC1CC(c1cc(NC(=O)C3CC3)nc3[nH]ccc13)C2` (centres unmarked) [Example 651, N-(4-(8-pentanoyl-8-azabicyclo[3.2.1]octan-3-yl)-1H-pyrrolo[2,3-b]pyridin-6-yl)cyclopropanecarboxamide], the IC50 was greater than 200 nM.

For `CC(C)N(C)S(=O)(=O)Nc1ccc(-c2cc(NC(=O)C3CC3)nc3[nH]ccc23)cc1` [Example 222, N-(4-(4-((N-isopropyl-N-methylsulfamoyl)amino)phenyl)-1H-pyrrolo[2,3-b]pyridin-6-yl)cyclopropanecarboxamide], the IC50 was in the range of 20 to 200 nM.

Consider `O=C(Nc1cc(C2=CC3CCCC(C2)N3C(=O)c2ccc([N+](=O)[O-])cc2)c2cc[nH]c2n1)C1CC1` (centres unmarked) [Example 370, N-(4-(9-(4-nitrobenzoyl)-9-azabicyclo[3.3.1]non-2-en-3-yl)-1H-pyrrolo[2,3-b]pyridin-6-yl)cyclopropanecarboxamide], for which the IC50 was 20 to 200 nM.

Take `CC1CN(C(=O)Cc2cccc(F)c2)CC=C1c1cc(NC(=O)C2CC2)nc2[nH]ccc12` (centres unmarked) [Example 346, N-(4-(1-(2-(3-fluorophenyl)acetyl)-3-methyl-1,2,3,6-tetrahydropyridin-4-yl)-1H-pyrrolo[2,3-b]pyridin-6-yl)cyclopropanecarboxamide]: the IC50 lay in the range of 20 to 200 nM.

Regarding `N#CCC(=O)N1C2C=C(c3cc(NC(=O)C4CC4)nc4[nH]ccc34)CC1CC2` (centres unmarked) [Example 257, N-(4-(8-(2-cyanoacetyl)-8-azabicyclo[3.2.1]oct-2-en-3-yl)-1H-pyrrolo[2,3-b]pyridin-6-yl)cyclopropanecarboxamide], the IC50 is less than 20 nM.

With `O=C(Nc1cc(C2CC3CCC(C2)N3S(=O)(=O)c2ccc(F)c(F)c2)c2cc[nH]c2n1)C1CC1` (centres unmarked) [Example 649, N-(4-(8-((3,4-difluorophenyl)sulfonyl)-8-azabicyclo[3.2.1]octan-3-yl)-1H-pyrrolo[2,3-b]pyridin-6-yl)cyclopropanecarboxamide], the IC50 is greater than 200 nM.

On to `O=C(Nc1cc(C2=CC3CCC(C2)N3S(=O)(=O)c2ccc(F)c(F)c2)c2cc[nH]c2n1)C1CC1` (centres unmarked) [Example 178, N-(4-(8-((3,4-difluorophenyl)sulfonyl)-8-azabicyclo[3.2.1]oct-2-en-3-yl)-1H-pyrrolo[2,3-b]pyridin-6-yl)cyclopropanecarboxamide], for which the IC50 was in the range of 20 to 200 nM.

For the molecule `C[C@@H]1CN(C(=O)CC#N)CC=C1c1cc(N)nc2[nH]ccc12` [Example 705, (S)-3-(4-(6-amino-1H-pyrrolo[2,3-b]pyridin-4-yl)-3-methyl-3,6-dihydropyridin-1 (2H)-yl)-3-oxopropanenitrile], the IC50 was greater than 200 nM.

Regarding `N#CCC(=O)Nc1ccc(-c2cc(NC(=O)C3CC3)nc3[nH]ccc23)cc1` [Example 239, N-(4-(4-(2-cyanoacetamido)phenyl)-1H-pyrrolo[2,3-b]pyridine-6-yl)cyclopropanecarboxamide], the IC50 was 20 to 200 nM.

The values are drawn from patent US11524968B2, “Heterocyclic compound as a protein kinase inhibitor” (HK inno.N Corporation, priority 2017, dated 2022).
